The subject of assay [1] is PC12 cells. As to the kind of experiment: Apoptosis after NGF withdrawal in differentiated PC12 cells (GFP-Histone nuclei scoring). The class given is cell-based, rat. As to the method: FIG. 5: (A) Anti-SM20/EGLN3 immunoblot analysis of PC12 cells treated as in FIG. 3A. SM-20 in vitro translate included in lane 1 as a control. (B and D) Representative fluorescent photomicrographs (B) and anti-HA immunoblot analysis (D) of PC12 cells transfected to produce GFP-Histone and the indicated HA-EGLN species. White arrows in […] indicate apoptotic nuclei. (C) Percent of GFP-positive nuclei with apoptotic changes after transfection with 0.5 or 1.0 μg of the indicated plasmids. (E and F) Representative fluorescent photomicrographs of PC12 cells transfected with the indicated siRNAs and a plasmid encoding GFP-Histone followed by treatment with NGF for […] (‘+NGF’), which was then withdrawn for 24 hours (‘−NGF’). White arrows indicate apoptotic nuclei, which were quantitated in (E) as percent of GFP-positive nuclei. (G and H) Representative fluorescent photomicrographs (F) of PC12 cells transfected to produce GFP-Histone and treated with NGF for 5 days (‘+NGF’), which was then withdrawn for 24 hours (‘−NGF’). Where indicated cells were exposed to 100 μM CoCl2 or 1% hypoxia during NGF withdrawal. White arrows indicate apoptotic nuclei, which were quantitated in (G) as % of GFP-positive nuclei.
(§1) (B) FACS profiles of PC12 cells stained with the ROS-sensitive dye CM-H2DCFDA after treatment with the indicated SDH inhibitors or the ROS-inducing agent Rotenone (Ro; 20 μM) in the presence or absence of the ROS scavenger ascorbic acid (AA; 100 μM). C=control. (C and D) Representive fluorescent photomicrographs of PC12 cells (C) transfected to produce GFP-Histone alone (GFP-His) or GFP-Histone and EGLN3 (EGLN3). The SDH inhibitors 3-NPA (300 t-IM), MA (300 I-LM), or TTFA (200 ˜M) were added where indicated. White arrows indicate apoptotic nuclei, which were quantitated in (D) as percent of GFP-positive nuclei. (E) Immunoblot analysis of PC12 cells treated with the indicated chemicals or vehicle (C). (F) Percent of GFP-positive PC12 nuclei undergoing apoptosis after transfection to produce GFP-Histone alone (GFP-His) or GFP-Histone and EGLN3 (EGLN3) in the presence or absence of SDH inhibitors. 100 μM AA was also present where indicated. (G) Percent of GFP-positive PC 12 nuclei undergoing apoptosis after transfection with the indicated siRNAs and a plasmid encoding GFP-Histone followed by treatment with NGF for 5 days (‘+NGF’), which was then withdrawn for 24 hours (‘−NGF’). […]
Undifferentiated PC12 cells were plated onto collagen-coated 6-well plates 1 day before transfection with LIPOFECTAMINE 2000 reagent (Invitrogen) according to the manufacturer's instructions. […] Nuclei that were condensed or fragmented were scored as apoptotic. Approximately 400 cells were scored for each set of conditions and all assays were performed in triplicate.

The next assay has as its system JunB. Kind of assay: Immunoblot analysis of JunB in 786-O renal carcinoma subclones. The format is cell-based, human. To be noted: 786-O cells treated with PKC inhibitor. As to the method: FIG. 2: (A) Immunoblot analysis of 786-O VHL(−/−) renal carcinoma cells retrovirally infected to produce the indicated short hairpin RNAs (shRNA) or wild-type pVHL (VHL). (B) Immunoblot analyis of RC3 cells and WT7 cells; where indicated, WT7 cells were treated with DFO or infected to produce HIF2α P405A; P531A or with empty retrovirus. (C) Immunoblot analysis of indicated 786-O subclones grown in presence or absence of DFO; (*)=non-specific band. (D) Immunoblot analysis of A498 and 786-O cells transfected to produce the indicated HA-pVHL variants or with empty vector. Arrow indicates a slowly migrating form of aPKC. (E) In vitro aPKC activity. Anti-aPKC immunoprecipitates of the indicated cell lines under antibody excess conditions were incubated with a peptidic aPKC substrate in the presence of ^32P-γ-ATP. Shown are incorporated ^32P values. (F) Immunoblot analysis of 786-O cells treated with the PKC inhibitor GF109230X.
Twenty μg of nuclear extract per lane, prepared using a NE-PER extraction kit (Pierce Biotechnology, Inc., Rockford Ill.) and measured by the Bradford assay, was resolved on 10% or 12% SDS-PAGE gels and transferred to nitrocellulose membrane (Bio-Rad Laboratories, Hercules Calif.) to detect endogenous JunB and HIF2α. […] Bound protein was detected with a Horseradish Peroxidase (HRP)-conjugated secondary antibodies and an enhanced chemiluminesence kit (Pierce).

A further assay has as its system HIF2α. As to the kind of experiment: Immunoblot analysis of HIF2α in 786-O cells. Particulars: 786-O cells treated with PKC inhibitor. The class given is cell-based, human. From the text:
(A and B) Immunoblot analysis of 786-O cells treated with the PKC inhibitor GF109230X.
Twenty μg of nuclear extract per lane, prepared using a NE-PER extraction kit (Pierce Biotechnology, Inc., Rockford Ill.) and measured by the Bradford assay, was resolved on 10% or 12% SDS-PAGE gels and transferred to nitrocellulose membrane (Bio-Rad Laboratories, Hercules Calif.) to detect endogenous JunB and HIF2α. After blocking in TBS with 5% nonfat milk, the membranes were probed with anti-JunB monoclonal antibody (C-11; Santa Cruz Biotechnology, Inc., Santa Cruz Calif.) or anti-HIF2α rabbit polyclonal antibody (NB100-122; Novus Biologicals, Inc., Littleton Colo.). Bound protein was detected with a Horseradish Peroxidase (HRP)-conjugated secondary antibodies and an enhanced chemiluminesence kit (Pierce).
(In general: Immunoblotting shows a protein as a band on a membrane.)

Assay [2] deals with PC12 cells. As to the kind of experiment: EGLN3-induced apoptosis in transfected undifferentiated PC12 cells (GFP-Histone nuclei scoring). The format is cell-based, rat. Particulars: coadministration of 100 μM AA with SDH inhibitors. As to the method: as §1, with “indicated.” for “indicated. (G) Percent of GFP-positive PC 12 nuclei undergoing apoptosis after transfection with the indicated siRNAs and a plasmid encoding GFP-Histone followed by treatment with NGF for 5 days (‘+NGF’), which was then withdrawn for 24 hours (‘−NGF’).”
Undifferentiated PC12 cells were plated onto collagen-coated 6-well plates 1 day before transfection with LIPOFECTAMINE 2000 reagent (Invitrogen) according to the manufacturer's instructions. […] Nuclei that were condensed or fragmented were scored as apoptotic. Approximately 400 cells were scored for each set of conditions and all assays were performed in triplicate. […]

The subject of assay [3] is PC12 cells. Kind of assay: ROS analysis by FACS with CM-H2DCFDA. The class given is cell-based, rat. Particulars: 100 μM AA. The method, then: (B) FACS profiles of PC12 cells stained with the ROS-sensitive dye CM-H2DCFDA after treatment with the indicated SDH inhibitors or the ROS-inducing agent Rotenone (Ro; 20 μM) in the presence or absence of the ROS scavenger ascorbic acid (AA; 100 μM). C=control. (C and D) Representive fluorescent photomicrographs of PC12 cells (C) transfected to produce GFP-Histone alone (GFP-His) or GFP-Histone and EGLN3 (EGLN3). The SDH inhibitors 3-NPA (300 t-IM), MA (300 I-LM), or TTFA (200 ˜M) were added where indicated. White arrows indicate apoptotic nuclei, which were quantitated in (D) as percent of GFP-positive nuclei. (E) Immunoblot analysis of PC12 cells treated with the indicated chemicals or vehicle (C). (F) Percent of GFP-positive PC12 nuclei undergoing apoptosis after transfection to produce GFP-Histone alone (GFP-His) or GFP-Histone and EGLN3 (EGLN3) in the presence or absence of SDH inhibitors. 100 μM AA was also present where indicated. (G) Percent of GFP-positive PC 12 nuclei undergoing apoptosis after transfection with the indicated siRNAs and a plasmid encoding GFP-Histone followed by treatment with NGF for 5 days (‘+NGF’), which was then withdrawn for 24 hours (‘−NGF’).
PC12 cells were incubated for 1 hr with 5 μM CM-H2DCFDA (Molecular Probes), harvested, resuspended at 10^6 cells/ml in PBS supplemented with 7% FBS, and analyzed by FACS.
(Flow cytometry measures light scatter and fluorescence of single cells or particles in a stream.)

Another assay has as its target T1, EGLN3 (Homo sapiens, UniProt Q9H6Z9).
T1 construct: HA; made in house; host or cells: in vitro translation in reticulocyte lysate
As to the kind of experiment: EGLN3 hydroxylation assay: HIF1α-derived peptide, capture of 35S-labeled pVHL. Particulars: increasing amount of succinate; EGLN3 in vitro translate. The class given is biochemical.

Setting [4] is: SDH inhibitors 300 μM, NGF withdrawn for 24 hours.

T1 sequence (Q9H6Z9 whole entry): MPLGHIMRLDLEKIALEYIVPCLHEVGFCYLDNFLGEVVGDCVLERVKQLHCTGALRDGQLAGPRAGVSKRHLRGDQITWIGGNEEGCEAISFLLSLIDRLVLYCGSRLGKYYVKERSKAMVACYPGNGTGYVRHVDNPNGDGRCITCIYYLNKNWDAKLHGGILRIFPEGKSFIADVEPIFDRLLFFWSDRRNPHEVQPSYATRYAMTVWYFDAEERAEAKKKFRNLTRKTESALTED

In the case of `O=C(O)CCC(=O)C(=O)O` [2-OG, 2-oxoglutarate], in the assay on PC12 cells [1] (0.5 mM 2-oxoglutarate added to the media 24 hours before NGF withdrawal), the “Apoptosis after NGF withdrawal in SDH D siRNA-transfected cells” value is “partially restored”.

Regarding `O=C(O)CC[N+](=O)[O-]` [3-NPA, 3-nitroproprionic acid], the “Apoptosis after NGF withdrawal” value in the assay on PC12 cells [1] (setting [4]) is given as “diminished apoptosis”.

`CN(C)CCCn1cc(C2=C(c3c[nH]c4ccccc34)C(=O)NC2=O)c2ccccc21` [GF109203X]: the JunB levels entry with JunB was “downregulated”. Further, the HIF2α levels entry in the assay with HIF2α is “does not affect”.

For the compound `O=C(O)CC(=O)O` [MA, malonic acid], in the assay on PC12 cells [1] (setting [4]), the “Apoptosis after NGF withdrawal” value is “diminished apoptosis”.

Regarding `O=C1O[C@H]([C@@H](O)CO)C(O)=C1O` [ascorbic acid], in the assay on PC12 cells [2], the “Effect on the action of the SDH inhibitors on EGLN3-induced apoptosis” value is reported as “failed to mitigate”. Besides, in the assay on PC12 cells [3], the “ROS induction by SDH inhibitors” value is given as “blocking ROS induction”.

For the compound `[Cl][Co][Cl]` [cobalt chloride], the “Apoptosis after NGF withdrawal” value in the assay with PC12 cells [1] (100 μM CoCl2 during NGF withdrawal, 24 hours) is listed as “decreased”.

For the compound `O=C(O)CCC(=O)O` [succinate], at EGLN3, the EGLN3 hydroxylase activity result is listed as “diminished”.

The record behind these values is US20100016434A1, “Inhibitors of Egln3 Activity for the Treatment of Neurodegenerative Disorders” (priority 2005, published 2010).
